Assay results from patent publication US9718790B2, “Triazine derivative and pharmaceutical composition having an analgesic activity comprising the same” (SHIONOGI & CO., LTD., priority 2010, dated 2017).
pIC50: −log10 of the molar value. Values belong to the molecule of their own block, whether it stands above or below them.

Tests used:
rat model of cystitis = experiment: Evaluation of the urinary function in a rat model of cystitis (acetic acid infusion, cystometry); format: in vivo; settings: oral administration of 30 mg/kg
Text: A rat was fixed in the supine position after being given anesthesia through the inhalation of 2% isoflurane (Anesthetic background: Nitrous oxide: Oxygen=7:3). A midline incision was made in its abdomen to expose the bladder. A cannula (made by) processing a polyethylene tube (PE-50: Becton Dickinson)) was inserted through a small incision on top of the bladder and fixed to create a bladder fistula. The other end of the cannula was led through the hypodermal tissue to the back, and the muscular coat and skin were sutured. The cannula, which was led to the back, was protected with a stainless spring in the middle and connected to the cannula swivel. […]
Three days after the acetic acid infusion, the other end of the cannula inserted into the bladder was connected to a T shape stopcock and then the intravesical pressure was recorded continuously using a pressure amplifier while infusing warmed normal saline solution at a rate of 3.0 mL/hr from one side and through a pressure transducer on the other side. The baseline of the intravesical pressure was measured (for approximately 40 minutes) after a measurement for stable duration (for approximately 20 minutes). After that, a vehicle, positive control compound or test compound wore administered, and the value after administration was measured for approximately 120 minutes. […]

[1] = test system: partial sciatic nerve ligation model in rats; experiment: Analgesic effect in a Seltzer model, Evaluation (2): mechanical hyperalgesia, analgesy meter paw pressure test; format: in vivo; settings: rat, oral administration, 10 mg/kg, at 3 hours
Text: (§1) Rats were anaesthetized using isoflurane/O2 inhalation anaesthesia. After induction of anesthesia, the left thigh was shaved. An incision was made in the skin just below the hip bone. The muscle was bluntly dissected to expose the sciatic nerve. One third (⅓) to one half (½) of the sciatic nerve thickness was tightly ligated and the wound was closed. The right thigh is used as a sham-operated control. The right thigh undergoes an identical procedure with the left hind limb, however, the sciatic nerve is not manipulated or ligated.
Mechanical hyperalgesia was eavaluated using an analgesy meter. Two weeks after nerve ligation, the paw pressure test was performed using an analgesy meter (stimulus pressure increased 16 g per second) to obtain paw withdrawal thresholds (PWT). Measurements were made on both sides of the hind paw and to obtain pre-dose PWT. The rats showing the threshold change from 60 to 90 g (in nerve ligated side) and 100 to 175 g (in sham operated side) were used in the experiments. On the day before the experiment, the rats have their hind paws set on the apparatus to familiarize them with the test procedure. […] Post-dose PWT of the right and left hind paws were measured at approximately 1 to 5 hours after drug administration. Percent reversal of mechanical hyperalgesia for each rat was calculated using the following formula. […]

CYP1A2 = CYP1A2 (Homo sapiens (Human), UniProt P05177); experiment: CYP inhibition test, pooled human hepatic microsome, 7-ethoxyresorufin O-deethylation; format: in vitro ADME; settings: substrate ethoxyresorufin
Experimental: (§2) Using commercially available pooled human hepatic microsome, and employlng, as markers, 7-ethoxyresorufin O-deethylation (CYP1A2), tolbutamide methyl-hydroxylation (CYP2C9), mephenyloin 4′-hydroxylation (CYP2C19), dextromethorphan O-demethylation (CYP2D6), and terfenedine hydroxylation as typical substrate metabolism reactions of human main five CYP enzyme forms (CYP1A2, 2C9, 2C19, 2D6, 3A4), an inhibitory degree of each metabolite production amount by a test compound was assessed.
(§3) The reaction conditions were as follows: substrate, 0.5 μmol/L ethoxyresorufin (CYP1A2), 100 μmol/L tolbutamide (CYP2C9), 50 μmol/L S-mephenitoin (CYP2C19), 5 μmol/L dextromethorphan (CYP2D6), 1 μmol/L terfenedine (CYP3A4) reaction time, 15 minutes; reaction temperature, 37° C; enzyme, pooled human hepatic microsome 0.2 mg protein/mL; test drug concentration, 1.0, 5.0, 10, 20 μmol/L (four points).
(§4) Each five kinds of substrates, human hepatic microsome, or a test drug in 50 mmol/L Hepes buffer as a reaction solution was added to a 96-well plate at the composition as described above, NADPH, as a cofactor was added to initiate metabolism reactions as markers and, after the incubation at 37° C. for 15 minutes, a methanol/acetonitrile=1/1 (v/v) solution was added to stop the reaction. After the centrifugation at 3000 rpm for 15 minutes, resorufin (CYP1A2 metabolite) in the supernatant was quantified by a fluorescent multilabel counter and tributamide hydroxide (CYP2CP metabolite), mephenyloin 4′ hydroxide (CYP2C19 metabolite), […] (CYP2D6 metabolite), and terfenadine alcohol (CYP3A4 metabolite) were quantified by LC/MS/MS.

CYP2C9 = CYP2C9 (Homo sapiens (Human), UniProt P11712); experiment: CYP inhibition test, pooled human hepatic microsome, tolbutamide methyl-hydroxylation; format: in vitro ADME; settings: substrate tolbutamide
Experimental: as §2, §3, §4

CYP2D6 = CYP2D6 (Homo sapiens (Human), UniProt P10635); experiment: CYP inhibition test, pooled human hepatic microsome, dextromethorphan O-demethylation; format: in vitro ADME; settings: substrate dextromethorphan
Experimental: as §2, §3, §4

CYP3A4 = CYP3A4 (Homo sapiens (Human), UniProt P08684); experiment: CYP inhibition test, pooled human hepatic microsome, terfenedine hydroxylation; format: in vitro ADME; settings: substrate terfenedine
Experimental: as §2, §3, §4

[2] = Bioavailability (BA) test; format: in vivo; settings: plasma; mice or SD rats, oral vs intravenous AUC
Experimental: (1) Animals: Mice or SD rats were used
(2) Breeding conditions: Mice or SD rats were allowed to freely take solid food and sterilized tap water.
(3) Dose and grouping: orally or intravenously administered at a predetermined dose; grouping was as follows (Dose depends one the compound) • Oral administration: 0.3 to 30 mg/kg (n=2 to 3) • Intravenous administration: 0.5 to 10 mg/kg (n=2 to 3)
(4) Preparation of dosing solution: for oral administration, in a solution or a suspension state: for intravenous administration, in a solubilized state
(5) Administration method: in oral administration, forcedly administer into ventriculus with oral probe; in intravenous administration, administer from caudal vein with a needle-equipped syringe
(6) Evaluation items: blood was collected over time, and the plasma concentration of drug was measured by LC/MS/MS
(7) Statistical analysis: regarding the transition of the plasma concentration or the present compound, the area under the plasma concentration-time curve (AUC) was calculated by non-linear least squares program WinNonlin (Registered trade name), and the bioavailability (BA) was calculated the AUCs of the oral administration group and intravenous administration group

CYP2C19 = CYP2C19 (Homo sapiens (Human), UniProt P33261); experiment: CYP inhibition test, pooled human hepatic microsome, mephenytoin 4'-hydroxylation; format: in vitro ADME; settings: substrate S-mephenitoin
Experimental: as §2, §3, §4

serum = experiment: Protein binding test (equilibrium dialysis, serum); format: in vitro ADME; settings: 37° C., 24 hours, 2 μg/mL
Experimental: The unbound fraction the present compound in serum was measured using serum of various species.
The reactive conditions are as follows: Evaluation method, Equilibrium dialysis; Reaction time, 24 hours; Reaction temperature, 37° C.; Concentration of the present compound, 2 μg/mL.
The test solution was added to each serum and the mixture was agitated to prepare the serum samples at the concentration mentioned above. Each serum sample was added into one side or the cell and phosphate buffered saline (PBS) was added into the other side to perform equilibrium dialysis at 37° C. for 24 hours. Then, the concentration of the compounds in the samples that were obtained from both sides was measured by LC/MS/MS.
(Result) The ratio of PBS concentration to serum concentration is expressed as unbound fraction.

human P2X3 receptor = human P2X3 receptor (Homo sapiens (Human), UniProt P56373); experiment: Evaluation of human P2X3 receptor inhibitory activity (Fluo-3 calcium fluorescence, FDSS 3000, ATP stimulation); format: cell-based;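 also: stimulus was 50 nM ATP with fluorescence followed for 3 min, and the response per well was peak post-ATP fluorescence divided by the reading at measurement start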
[3] = test system: partial sciatic nerve ligation model in rats; experiment: Analgesic effect in a Seltzer model, Evaluation (1): mechanical allodynia, von Frey filaments; format: in vivo; settings: rat, oral single administration, at 3 hours, read-out: analgesic effect, percent reversal of mechanical allodynia
Text: as §1
Two weeks after nerve ligation, the effect on mechanical allodynia was assessed using a series of von Frey filaments. For habituation, the rats were placed into a plastic cage on a wire mesh bottom. The mechanical sensitivity (mechanical threshold) of the hind paws was estimated with a series of von Frey filaments (0.4-20 g). The measurement of mechanical sensitivity of the right and left hind paws was performed to obtain predose mechanical sensitivity. The rats showing thee threshold change from 0.6 to 2 g (in nerve ligated side) and 8 to 15 g (in sham operated side) were used in the experiments. On the day belone the experiment, the rats were evaluated with a series of von Frey filaments to familiarize them with the test procedure. The adopted animal was administrated with the test compounds. The test compounds were homogenized with mortar and pestle and suspended or diluted in 0.5% Methyl Cellulose to prepare 0.1-2.0 mg/mL/kg suspension and orally administered to rat using a syringe attached with a sonde. Post-dose mechanical sensitivities of the right and left hind paws were measured at approximately 1 to 5 hours after drug administration. Percent reversal of mechanical allodynia for each rat was calculated using the following formula. The analgesic effects of the compounds were compared.

[4] = human P2X3 receptor, Test Example 1

Sequence of human P2X3 receptor (P56373 whole entry): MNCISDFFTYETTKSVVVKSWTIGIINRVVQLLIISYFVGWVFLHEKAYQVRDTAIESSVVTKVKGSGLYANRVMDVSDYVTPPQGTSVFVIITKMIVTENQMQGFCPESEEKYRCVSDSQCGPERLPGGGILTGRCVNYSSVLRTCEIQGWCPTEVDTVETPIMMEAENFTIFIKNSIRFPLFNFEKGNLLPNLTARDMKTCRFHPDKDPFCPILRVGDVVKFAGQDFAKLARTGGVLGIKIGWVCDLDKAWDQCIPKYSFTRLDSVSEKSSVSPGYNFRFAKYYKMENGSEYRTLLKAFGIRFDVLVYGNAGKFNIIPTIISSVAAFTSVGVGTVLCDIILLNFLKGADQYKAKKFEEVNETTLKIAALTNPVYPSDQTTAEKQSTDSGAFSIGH
Sequence of CYP2D6 (P10635 whole entry): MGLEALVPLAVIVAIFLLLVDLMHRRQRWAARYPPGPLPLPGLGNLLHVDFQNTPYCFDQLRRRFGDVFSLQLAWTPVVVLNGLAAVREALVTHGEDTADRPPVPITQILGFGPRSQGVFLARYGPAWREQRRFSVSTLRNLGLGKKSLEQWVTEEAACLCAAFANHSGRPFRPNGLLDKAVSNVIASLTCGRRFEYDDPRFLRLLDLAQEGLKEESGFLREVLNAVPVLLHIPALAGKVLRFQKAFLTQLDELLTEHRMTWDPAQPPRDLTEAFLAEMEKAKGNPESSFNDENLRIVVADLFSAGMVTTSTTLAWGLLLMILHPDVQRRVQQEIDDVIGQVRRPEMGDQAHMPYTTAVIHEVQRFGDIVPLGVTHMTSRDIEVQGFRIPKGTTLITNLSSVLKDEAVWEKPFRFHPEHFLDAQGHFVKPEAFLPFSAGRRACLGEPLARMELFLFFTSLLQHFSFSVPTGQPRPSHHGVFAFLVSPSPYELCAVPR
Sequence of CYP1A2 (P05177 whole entry): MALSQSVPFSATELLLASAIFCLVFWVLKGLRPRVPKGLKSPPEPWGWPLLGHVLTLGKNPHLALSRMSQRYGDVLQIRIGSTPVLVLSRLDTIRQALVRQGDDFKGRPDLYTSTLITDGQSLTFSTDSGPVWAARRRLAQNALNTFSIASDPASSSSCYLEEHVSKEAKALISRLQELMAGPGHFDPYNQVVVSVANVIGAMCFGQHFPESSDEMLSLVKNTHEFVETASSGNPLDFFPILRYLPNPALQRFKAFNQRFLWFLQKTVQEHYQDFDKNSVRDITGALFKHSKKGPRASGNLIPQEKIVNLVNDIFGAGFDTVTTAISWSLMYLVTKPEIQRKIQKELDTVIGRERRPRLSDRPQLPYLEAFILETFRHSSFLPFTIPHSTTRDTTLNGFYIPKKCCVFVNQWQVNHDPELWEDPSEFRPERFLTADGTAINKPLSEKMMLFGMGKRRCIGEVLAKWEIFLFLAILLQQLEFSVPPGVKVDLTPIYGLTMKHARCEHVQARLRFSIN
Sequence of CYP3A4 (P08684 whole entry): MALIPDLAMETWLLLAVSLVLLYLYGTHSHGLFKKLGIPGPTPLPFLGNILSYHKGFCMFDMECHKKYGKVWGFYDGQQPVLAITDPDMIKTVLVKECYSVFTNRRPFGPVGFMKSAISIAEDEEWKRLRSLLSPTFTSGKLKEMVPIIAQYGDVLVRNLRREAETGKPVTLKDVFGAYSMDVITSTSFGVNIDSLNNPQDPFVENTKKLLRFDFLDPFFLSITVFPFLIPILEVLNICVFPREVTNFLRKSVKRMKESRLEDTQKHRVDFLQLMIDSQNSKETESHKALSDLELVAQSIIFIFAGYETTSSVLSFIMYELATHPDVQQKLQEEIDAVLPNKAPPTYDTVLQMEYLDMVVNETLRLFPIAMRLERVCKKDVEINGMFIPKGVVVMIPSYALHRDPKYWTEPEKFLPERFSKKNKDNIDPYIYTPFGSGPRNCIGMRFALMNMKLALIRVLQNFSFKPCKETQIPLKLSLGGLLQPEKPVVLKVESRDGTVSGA
Sequence of CYP2C9 (P11712 whole entry): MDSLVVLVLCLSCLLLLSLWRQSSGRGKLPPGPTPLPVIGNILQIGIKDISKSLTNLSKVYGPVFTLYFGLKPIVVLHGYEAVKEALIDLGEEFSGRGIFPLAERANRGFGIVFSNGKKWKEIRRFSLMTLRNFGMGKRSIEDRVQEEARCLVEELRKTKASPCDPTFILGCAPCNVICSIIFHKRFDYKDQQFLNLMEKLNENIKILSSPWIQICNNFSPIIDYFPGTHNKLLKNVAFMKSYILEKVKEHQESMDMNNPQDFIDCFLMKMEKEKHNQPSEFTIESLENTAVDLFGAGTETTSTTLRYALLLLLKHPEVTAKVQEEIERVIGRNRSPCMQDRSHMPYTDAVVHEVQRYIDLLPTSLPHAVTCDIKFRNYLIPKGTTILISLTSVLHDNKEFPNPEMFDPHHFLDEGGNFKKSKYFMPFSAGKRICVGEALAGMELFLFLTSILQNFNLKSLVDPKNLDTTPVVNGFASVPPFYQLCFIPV
Sequence of CYP2C19 (P33261 whole entry): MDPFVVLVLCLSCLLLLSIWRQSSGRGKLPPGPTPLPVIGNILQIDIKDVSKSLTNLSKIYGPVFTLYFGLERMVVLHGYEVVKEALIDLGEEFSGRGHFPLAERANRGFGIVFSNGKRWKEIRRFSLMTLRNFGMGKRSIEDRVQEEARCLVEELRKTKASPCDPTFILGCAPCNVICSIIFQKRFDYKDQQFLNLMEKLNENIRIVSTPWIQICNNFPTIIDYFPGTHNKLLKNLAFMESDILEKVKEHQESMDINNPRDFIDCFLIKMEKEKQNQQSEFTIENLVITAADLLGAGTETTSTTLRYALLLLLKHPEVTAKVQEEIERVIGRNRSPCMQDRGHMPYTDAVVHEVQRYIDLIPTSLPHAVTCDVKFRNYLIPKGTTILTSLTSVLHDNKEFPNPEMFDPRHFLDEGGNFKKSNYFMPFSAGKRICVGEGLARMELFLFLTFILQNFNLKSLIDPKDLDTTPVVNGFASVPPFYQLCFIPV

Structure (SMILES): CC(C)Oc1ccc(Nc2nc(=O)n(CC(C)(C)C(=O)O)c(=O)n2Cc2ccc(Cl)cc2)cc1F [Compound I-0364]
improvements in the urinary function in the voided volume per urination (rat model of cystitis): 88%
improvements in the urinary function in the voiding interval (rat model of cystitis): 74.8%
analgesic effect, percent reversal of mechanical hyperalgesia [1]: 56.7 % reversal

pIC50 (CYP1A2): < 4.70
pIC50 (CYP2C9): < 4.70
pIC50 (CYP2D6): < 4.70
pIC50 (CYP3A4): < 4.70
bioavailability [2]: > 99.9%
pIC50 (CYP2C19): < 4.70
Structure (SMILES): COC(=O)[C@@H](C)Cn1c(=O)[nH]/c(=N\c2cccc(C3C=CCCC3)c2)n(Cc2ccc(C)cc2)c1=O (stereo partly shown) [Compound I-1079]

Structure (SMILES): CNC(=O)c1cc(Oc2ccc(/N=c3\[nH]c(=O)n(C)c(=O)n3Cc3ccc(Cl)cc3)cc2)ccn1 [Compound I-2011]
unbound fraction (ratio of PBS concentration to serum concentration) (serum): 0.5%
pIC50 (human P2X3 receptor; C6BU-1 cells stably expressing human P2X3 receptor): 8.00

Structure (SMILES): O=c1[nH]/c(=N\c2ccc(Oc3ccon3)cc2)n(Cc2ccc(Cl)cc2)c(=O)n1CCO [Compound I-2292]
inhibition in vivo at 3 mg/kg [3]: > 30%
pIC50 (human P2X3 receptor; [4]): 7.92

Structure (SMILES): O=c1[nH]/c(=N\c2ccc(Oc3ccon3)cc2)n(Cc2ccc(Cl)cc2)c(=O)n1C[C@H](O)CO [Compound I-2293]
inhibition in vivo at 3 mg/kg [3]: > 30%
pIC50 (human P2X3 receptor; [4]): 8.22

Structure (SMILES): CC(CO)(CO)Cn1c(=O)[nH]/c(=N\c2ccc(Oc3ccon3)cc2)n(Cc2ccc(Cl)cc2)c1=O [Compound I-2369]
inhibition in vivo at 3 mg/kg [3]: > 30%
pIC50 (human P2X3 receptor; [4]): 8.52

Structure (SMILES): Cn1c(=O)[nH]/c(=N\c2ccc(Oc3cnc(C#N)cn3)cc2)n(Cc2ccc(Cl)cc2)c1=O [Compound I-2428]
inhibition in vivo at 3 mg/kg [3]: > 30%
pIC50 (human P2X3 receptor; [4]): 8.30
